Experimental data reported in the supplement of paper PMC4862054.

Assays:
Details in all cases: 72 h
CAL-148 [1] = tested on: CAL-148
In short: (§1)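 Breast cancer cell lines (20 µl suspension) were seeded into 384-well plates holding compound at 5 concentrations in 10-fold steps over a compound-specific 10,000-fold range, then incubated 72 h. Cell death was read first by CellTox Green fluorescence (485/520 nm), then viability by CellTiter-Glo luminescence after 10 min at room temperature. Each plate was normalised to 0.1 % DMSO and a positive kill control. EC50 was fitted from the dose-response curves and censored at the top concentration.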

CAL-85-1 = tested on: CAL-85-1
In short: as §1

DU-4475 [2] = tested on: DU-4475
In short: as §1

HCC1599 [3] = tested on: HCC1599
In short: as §1

HCC1937 = tested on: HCC1937
In short: as §1

HDQ-P1 [4] = tested on: HDQ-P1
In short: as §1

Hs578T [5] = tested on: Hs578T
In short: as §1

MCF-10A = tested on: MCF-10A
In short: as §1

MDA-MB-453 [6] = tested on: MDA-MB-453
In short: as §1

MDA-MB-468 [7] = tested on: MDA-MB-468
In short: as §1

BT-474 = tested on: BT-474
Method: (§2)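 Drug sensitivity and resistance testing (DSRT) of breast cancer cell lines in 384-well plates, 5 concentrations in 10-fold dilutions over a compound-specific 10,000-fold range. After 72 h, cytotoxicity was read by CellTox Green fluorescence and viability by CellTiter-Glo luminescence (multiplexed), normalised to DMSO and benzethonium chloride controls. EC50 is the inflection point of the fitted dose-response curve (bottom asymptote free, so it can be relative for partial curves) and is censored at the highest tested concentration. Rows with DSS 0 (no meaningful response) were excluded.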

CAL-120 = tested on: CAL-120
Method: as §2

CAL-148 [8] = tested on: CAL-148; remark: listed apart in the source
Method: as §2

CAL-51 = tested on: CAL-51
Method: as §2

DU-4475 [9] = tested on: DU-4475; remark: listed apart in the source
Method: as §2

HCC1143 = tested on: HCC1143
Method: as §2

HCC1599 [10] = tested on: HCC1599; remark: listed apart in the source
Method: as §2

HDQ-P1 [11] = tested on: HDQ-P1; remark: listed apart in the source
Method: as §2

Hs578T [12] = tested on: Hs578T; remark: listed apart in the source
Method: as §2

MDA-MB-231 = tested on: MDA-MB-231
Method: as §2

MDA-MB-453 [13] = tested on: MDA-MB-453; remark: listed apart in the source
Method: as §2

MDA-MB-468 [14] = tested on: MDA-MB-468; remark: listed apart in the source
Method: as §2

MFM-223 = tested on: MFM-223
Method: as §2

Cn1cc(CNCC2CCN(c3ncc(C(=O)NO)cn3)CC2)c2ccccc21 [Quisinostat]
EC50, CellTiter-Glo (CAL-148 [1]): 0.0283 µM
EC50, CellTiter-Glo (CAL-85-1): 0.0341 µM
EC50, CellTiter-Glo (DU-4475 [2]): 0.024 µM
EC50, CellTiter-Glo (HCC1599 [3]): 0.0713 µM
EC50, CellTiter-Glo (HCC1937): 0.199 µM
EC50, CellTiter-Glo (HDQ-P1 [4]): 0.148 µM
EC50, CellTiter-Glo (Hs578T [5]): 0.0591 µM
EC50, CellTiter-Glo (MCF-10A): 0.0928 µM
EC50, CellTiter-Glo (MDA-MB-453 [6]): 0.011 µM
EC50, CellTiter-Glo (MDA-MB-468 [7]): 0.0507 µM
EC50, CellTox Green (BT-474): 0.036 µM
EC50, CellTox Green (CAL-120): 0.0656 µM
EC50, CellTox Green (CAL-148 [8]): 0.0521 µM
EC50, CellTox Green (CAL-51): 0.116 µM
EC50, CellTox Green (DU-4475 [9]): 0.0956 µM
EC50, CellTox Green (HCC1143): 0.134 µM
EC50, CellTox Green (HCC1599 [10]): 0.106 µM
EC50, CellTox Green (HDQ-P1 [11]): 0.396 µM
EC50, CellTox Green (Hs578T [12]): 0.0603 µM
EC50, CellTox Green (MDA-MB-231): 0.0725 µM
EC50, CellTox Green (MDA-MB-453 [13]): > 1 µM
EC50, CellTox Green (MDA-MB-468 [14]): 0.00587 µM
EC50, CellTox Green (MFM-223): 0.0588 µM
